According to US7306811B2, “Fungicide composition based on halosulphone in particular for packaging” (priority 2000, dated 2007):

Tested on: six mushroom strains: Aspergillus Sydowi, Aspergillus Versicolor, Cladosporium Herbarum, Cladosporium Sphaerospernum, Penicillium Citrinum and Penicillium …
Test: Development of moulds on treated paper, standard AFNOR X 41 517
Details: overall judgement of the paper mould test
Experimental: The following test was carried out. Two surfaces of a woodless industrial paper weighing 80 g/m^2 dry, having a 1-minute COBB value of 25 to 35, were brought into contact with six mushroom strains for 14 days under the quality test conditions of the standard AFNOR X 41 517: the strains used were Aspergillus Sydowi, Aspergillus Versicolor, Cladosporium Herbarum, Cladosporium Sphaerospernum, Penicillium Citrinum and Penicillium Corylophilum. At the end of this period, visual assessment of the development of moulds was noted using a code from 0 to 6+, the value 6+ being allocated to the untreated control, while the notation 0 corresponded to no development of the seeded moulds.
The fungicide solutions used in this test were prepared in the same way as mentioned above. With regard to the fungicide T1, chlorothalonil was mixed in water. The fungicidal product T2 was prepared on the basis of di-iodo-ethyl-p-tolyl-sulphone only. The fungicide T3 was prepared from a mixture of chlorotalonyl and a zinc pyrithione. The fungicide T4 was prepared from a mixture of Amical (di-iodomethyl-p-tolyl-sulphone, and zinc pyrithione. Finally the fungicide T5 corresponds to the mixture given by way of example above according to the invention, i.e. a mixture of chlorotalonyl and di-iodo-methyl-p-tolyl-sulphone or Amical.

For N#Cc1c(Cl)c(Cl)c(Cl)c(C#N)c1Cl [Chlorothalonil alone T1, 2,4,5,6 tetrachloro-1,3 benzene dicarbonitrile], the “fungicidal quality in words, as seen from the Table” value was “average fungicide”.
For Cc1ccc(S(=O)(=O)C(I)I)cc1 [DIMPTS alone T2, di-iodomethyl-p-tolyl-sulphone], the “fungicidal quality in words, as seen from the Table” value was “excellent fungicide”.
